Tested on: Plasmodium berghei
Assay: Luciferase/luciferin-expressing antifolate-resistant parasites were used to infect a culture of HepG2 cells that were pre-incubated with compounds. Infected hepatocytes emit light due to the luciferase reaction. Assay results are presented as the percent inhibition of light emission compared to control. […]
Format: functional
Settings: sporozoite; for IC50: read-out: LUCIFERASE INFECTION ASSAY - IC50; for IC90: read-out: LUCIFERASE INFECTION ASSAY - IC90

## O=C(CN1CCN(c2cccc(Cl)c2)CC1)Nc1nccs1
  IC50: > 9.8 µM
  IC90: > 9.8 µM

## C=C(C)CC(NCc1ccco1)c1ccc(OC)cc1 (configuration not stated)
  IC50: 8.94 µM
  IC90: > 12.2 µM

## CC1CCCC(C)N1C(=O)Nc1cccc(Cl)c1 (configuration not stated)
  IC50: > 12.4 µM
  IC90: > 12.4 µM

## CC(C)Cc1nc(N2CCN(C(=O)c3ccco3)CC2)c(C#N)c2c1CCCC2
  IC50: 3.18 µM
  IC90: 3.93 µM

## Cc1cc2nc(NC3=NCN(Cc4cccnc4)CN3)nc(C)c2cc1C
  IC50: > 9.13 µM
  IC90: > 9.13 µM

## C[C@H](NC(=O)[C@@H]1CSC2c3ccccc3C(=O)N21)C(=O)NC1CCCCC1 (some centres not stated)
  IC50: > 8.52 µM
  IC90: > 8.52 µM

## O=C(O)CCCNC(=O)CCn1nnc2ccccc2c1=O
  IC50: > 10.8 µM
  IC90: > 10.8 µM

## Cc1nn2c(NCCN(C)C)cc(C(C)C)nc2c1-c1ccccc1
  IC50: > 9.78 µM
  IC90: > 9.78 µM

## OCCNCCNCc1c(OCc2ccc(F)cc2)ccc2ccccc12
  IC50: > 8.96 µM
  IC90: > 8.96 µM

## Fc1ccc(COc2ccccc2CNCc2cccnc2)cc1
  IC50: > 10.2 µM
  IC90: > 10.2 µM

## CCCN1CCc2c(sc3c2c(NCCc2ccccc2)nc2nnnn23)C1
  IC50: > 8.39 µM
  IC90: > 8.39 µM

## O=c1nc2n(c3ccccc13)CC/C2=C\c1ccc(Cl)cc1
  IC50: > 10.7 µM
  IC90: > 10.7 µM

## CCn1c2ccccc2c2cc(CNCCNC(=O)c3nonc3N)ccc21
  IC50: > 8.72 µM
  IC90: > 8.72 µM

## NC(=O)c1c(NC(=O)NCc2ccncc2)sc2c1CCCC2
  IC50: > 9.99 µM
  IC90: > 9.99 µM

## CNC(=O)C(Sc1nnc(Nc2ccc(C(C)C)cc2)s1)C(C)=O (configuration not stated)
  IC50: > 10 µM
  IC90: > 10 µM

## COc1cccc(/C=C2\Oc3cc(O)cc(C)c3C2=O)c1
  IC50: > 11.7 µM
  IC90: > 11.7 µM

## Cc1cc(NC(=O)C(c2ccc(Cl)cc2)C(C)C)ccc1Br (configuration not stated)
  IC50: > 10 µM
  IC90: > 10 µM

## CCC(C)(C)c1ccc(Oc2ccc(NC(=O)CSc3cccc[n+]3[O-])cc2)cc1
  IC50: > 10 µM
  IC90: > 10 µM

## O=C(Nc1nonc1-c1cccs1)c1sc2cccc(Cl)c2c1Cl
  IC50: 3.26 µM
  IC90: 4.63 µM

## Cc1nc(=O)c2c([nH]1)NC(=O)CC2c1ccccc1C (configuration not stated)
  IC50: > 12.3 µM
  IC90: > 12.3 µM

## Oc1cc(OCCN2CCCCC2)ccc1-c1n[nH]cc1-c1ccccc1
  IC50: > 9.08 µM
  IC90: > 9.08 µM

## CC(C)c1ccc(OCC(=O)NC2CCCCCC2)cc1
  IC50: > 11.4 µM
  IC90: > 11.4 µM

## Cn1c(SCC(=O)Nc2cccc(C(=O)O)c2)nnc1-c1cnccn1
  IC50: > 8.91 µM
  IC90: > 8.91 µM

## CC(C)c1nc(NCCCN2CCOCC2)c(C#N)c2c1CCCC2
  IC50: > 9.64 µM
  IC90: > 9.64 µM

## O=c1c2c([nH]c3c(-c4ccccc4)c(Cc4ccccc4)nn13)CCCC2
  IC50: > 9.28 µM
  IC90: > 9.28 µM

## O=C(COc1ccc(F)cc1)Nc1ccc2c(=O)c3cccc(Cl)c3oc2c1
  IC50: > 8.3 µM
  IC90: > 8.3 µM

## COc1cccc(CNCCCSc2nnnn2-c2ccccc2)c1
  IC50: > 9.28 µM
  IC90: > 9.28 µM

## Cc1ccc2c(Cl)c(C(=O)Nc3nonc3-c3ccccc3)sc2c1
  IC50: 7.41 µM
  IC90: 8.14 µM

## Brc1ccc(OCc2ccccc2)c(CNCc2cccnc2)c1
  IC50: > 8.61 µM
  IC90: > 8.61 µM

## O=C(CC12CC3CC(CC(C3)C1)C2)NN=CC1C(=O)N(Cc2ccccc2)C(=O)c2ccccc21 (configuration not stated)
  IC50: > 10 µM
  IC90: > 10 µM

## O=C1CC(c2cccc(Cl)c2Cl)c2c([nH]c(-c3ccccc3)nc2=O)N1 (configuration not stated)
  IC50: > 8.54 µM
  IC90: > 8.54 µM

## Fc1ccccc1COc1ccccc1CNCc1cccnc1
  IC50: > 10.2 µM
  IC90: > 10.2 µM

## c1ccc(-c2csc3nc(-c4ccccn4)nc(NC4CC4)c23)cc1
  IC50: 2.32 µM
  IC90: 4.93 µM

## Nc1c(-c2ccccc2)[nH]c2ccccc12
  IC50: > 15.8 µM
  IC90: > 15.8 µM

## Cc1c(Cl)cccc1N=C(SCC(=O)N(C)C1CCCCC1)C(C#N)c1nc2ccccc2s1 (configuration not stated)
  IC50: > 10 µM
  IC90: > 10 µM

## CN(CCO)C(=O)Nc1sc2c(c1C(N)=O)CCC2
  IC50: > 11.6 µM
  IC90: > 11.6 µM

## CCC1CCCCN1C(=O)COC(=O)c1cc(C(C)(C)C)cc(C(C)(C)C)c1 (configuration not stated)
  IC50: > 10 µM
  IC90: > 10 µM

## Cc1n[nH]c(Nc2cc(Cl)cc(Cl)c2)nc1=O
  IC50: > 12.2 µM
  IC90: > 12.2 µM

## CCN(Cc1ccccc1)S(=O)(=O)c1cc(C(=O)OCc2ccccc2Cl)ccc1OC
  IC50: > 10 µM
  IC90: > 10 µM

## COC(=O)c1c(NC(=O)C(=O)NCCN(C)C)sc2c1CCCC2
  IC50: > 9.34 µM
  IC90: > 9.34 µM

## COc1ccc(NC(=O)Nc2cccc(C(F)(F)F)c2)cc1
  IC50: > 10.6 µM
  IC90: > 10.6 µM

## Cc1n[nH]c(Nc2ccc(Oc3ccccc3)cc2)nc1=O
  IC50: > 11.2 µM
  IC90: > 11.2 µM

## CCCn1c(-c2ccccc2)nc2c(c(=O)c3ccccc3n2C)c1=O
  IC50: 3.2 µM
  IC90: 3.93 µM

## C=CCOc1cccc(C(=O)N(C)Cc2nc(-c3ccc(Cl)cc3)no2)c1
  IC50: > 8.6 µM
  IC90: > 8.6 µM

## Cc1cccc(-c2nc3c(c(SCCN4CCCC4)n2)COC(C)(C)C3)c1
  IC50: > 8.6 µM
  IC90: > 8.6 µM

## O=C1CCCC2=C1C(c1ccccc1)C=C1c3cc4c(cc3CCN12)OCCCO4 (configuration not stated)
  IC50: > 8.26 µM
  IC90: > 8.26 µM

## C=C(C)COc1ccc(-c2onc(C)c2-c2ccc(OC)c(OC)c2)c(O)c1
  IC50: 0.64 µM
  IC90: 7.35 µM

## O=C(Nc1ccc2c[nH]nc2c1)C1=NN(c2ccccc2)C(=O)CC1
  IC50: > 9.9 µM
  IC90: > 9.9 µM

## CC(=O)c1cc2c(N)c(C(=O)OCc3cccc4ccccc34)sc2nc1C
  IC50: > 10 µM
  IC90: > 10 µM

## Cc1ccc(O)c(-c2cc(C(=O)Nc3ccccc3C(F)(F)F)[nH]n2)c1
  IC50: > 9.13 µM
  IC90: > 9.13 µM

## Cc1nc(=O)c2c([nH]1)NC(=O)CC2c1cc(F)ccc1F (configuration not stated)
  IC50: > 11.3 µM
  IC90: > 11.3 µM

## CCC1Oc2ccccc2C(=O)N(Cc2ccccc2F)C1=O (configuration not stated)
  IC50: > 10.5 µM
  IC90: > 10.5 µM

## Cn1c(=O)oc2ccc(S(=O)(=O)Nc3ccc4c(c3)CCCC4)cc21
  IC50: > 9.21 µM
  IC90: > 9.21 µM

## C/N=c1\scc(-c2ccc(OC(F)F)cc2)n1/N=C/c1ccccc1[N+](=O)[O-]
  IC50: > 10 µM
  IC90: > 10 µM

## COc1cc2[nH]c(C(=O)Nc3cccc(C(F)(F)F)c3)cc2c(OC)c1OC
  IC50: 7.63 µM
  IC90: 8.28 µM

## COc1ccc(NCc2csc(-c3ccccc3)n2)cc1Cl
  IC50: > 10 µM
  IC90: > 10 µM

## O=c1nc(Nc2cccc(C(F)(F)F)c2)[nH]nc1Cc1ccccc1
  IC50: 1.23 µM
  IC90: > 9.53 µM

## CCOc1ccccc1C(=O)CN1C(=O)COc2ccccc2C1=O
  IC50: > 9.72 µM
  IC90: > 9.72 µM

## Clc1cc(Cl)cc(NCc2ccc3c(c2)OCO3)c1
  IC50: > 11.1 µM
  IC90: > 11.1 µM

## O=C1CC(c2cccc3ccccc23)c2c([nH]c(-c3ccccc3)nc2=O)N1 (configuration not stated)
  IC50: > 8.98 µM
  IC90: > 8.98 µM

## CCN(CC)c1ncnc2c1oc1nc(CC(C)C)c3c(c12)CCC3
  IC50: > 9.75 µM
  IC90: > 9.75 µM

## CCN1CCN(c2nc(CC(C)C)c3c(c2C#N)CCCC3)CC1
  IC50: > 10.1 µM
  IC90: > 10.1 µM

## Cn1c2ccccc2c(=O)c2c(=O)n(CCc3ccccc3)c(-c3ccco3)nc21
  IC50: 2.64 µM
  IC90: 5.38 µM

## c1csc(-c2nnc(Sc3ncnc4sccc34)[nH]2)c1
  IC50: > 10 µM
  IC90: > 10 µM

## COCC(C)NC(=O)c1cccnc1-c1nc2ccccc2s1 (configuration not stated)
  IC50: > 10.1 µM
  IC90: > 10.1 µM

## Cc1cc(O)cc2c1C(=O)/C(=C/c1ccc(F)cc1)O2
  IC50: > 12.2 µM
  IC90: > 12.2 µM

## CC(C)(C)c1ccc(C(=O)Nc2nonc2-c2ccc(F)cc2)cc1
  IC50: > 9.72 µM
  IC90: > 9.72 µM

## O=C(Nc1sc2ccccc2c(=O)c1-c1ccccc1)C1CCCCC1
  IC50: > 9.08 µM
  IC90: > 9.08 µM

## Cc1ccc(-c2cc(C(=O)Nc3nnc(C(C)C)s3)[nH]n2)c(O)c1C
  IC50: > 9.23 µM
  IC90: > 9.23 µM

## COc1ccc(-n2nc(C)c3c2NC(=O)CC3c2ccc(O)cc2)cc1 (configuration not stated)
  IC50: > 9.45 µM
  IC90: > 9.45 µM

## Cc1sc2ncn3nc(-c4ccc(=O)[nH]n4)nc3c2c1C
  IC50: > 11.1 µM
  IC90: > 11.1 µM

## COc1ccc(NC(=O)c2ccc(C)c(F)c2)cc1OCc1cccnc1
  IC50: 6.13 µM
  IC90: > 10 µM

## CCOc1ccccc1C(=O)N(C)Cc1nc(-c2ccccc2)no1
  IC50: > 9.78 µM
  IC90: > 9.78 µM

## CC(C)CNc1cc(N2CCN(C)CC2)c(N)c2c1C(=O)c1ccccc1C2=O
  IC50: > 8.41 µM
  IC90: > 8.41 µM

## O=C1/C(=C/Nc2ccccc2O)c2ccccc2C(=O)N1c1ccccc1Cl
  IC50: > 10 µM
  IC90: > 10 µM

## CC/C=C1/CC(=O)N(c2ccc(OC(C)=O)cc2)C1=O
  IC50: > 12.1 µM
  IC90: > 12.1 µM

## COc1ccc(CCC(=O)NCc2cc(=O)n(C)c(=O)n2C)cc1
  IC50: > 9.96 µM
  IC90: > 9.96 µM

## CCCn1c(NC(=O)c2sc3ccccc3c2Cl)nc2ccccc21
  IC50: > 10 µM
  IC90: > 10 µM

## Clc1ccccc1COc1ccccc1CNCc1cccnc1
  IC50: > 9.74 µM
  IC90: > 9.74 µM

## Cn1c(=O)n(C2CCCCC2)c(=O)c2ccccc21
  IC50: > 12.8 µM
  IC90: > 12.8 µM

## O=c1c2ccccc2sc2nc(-c3ccccc3)n(Cc3ccccc3)c(=O)c12
  IC50: > 8.32 µM
  IC90: > 8.32 µM

## N#Cc1c(SCc2ccc(F)cc2)nc(N2CCOCC2)c2c1CCCC2
  IC50: > 8.61 µM
  IC90: > 8.61 µM

## Cc1cc2oc(C(=O)Nc3nonc3-c3ccc(F)cc3)c(C)c2cc1Cl
  IC50: > 8.55 µM
  IC90: > 8.55 µM

## CCn1c(SCC(=O)Nc2cc(Cl)ccc2O)nnc1-c1ccncc1
  IC50: > 8.46 µM
  IC90: > 8.46 µM

## CC1(C)Cc2c(C#N)c(Nc3ccccc3)nc(NCCCO)c2CO1
  IC50: > 9.36 µM
  IC90: > 9.36 µM

## COc1ccccc1NCC(=O)N/N=C1/C(=O)Nc2ccc(C(C)C)cc21
  IC50: > 10 µM
  IC90: > 10 µM

## COc1ccc(Cc2n[nH]c(Nc3cccc(Cl)c3)nc2=O)cc1
  IC50: 1.11 µM
  IC90: 1.36 µM

## CC(C)Oc1ccccc1Nc1nc(=O)cn[nH]1
  IC50: > 13.4 µM
  IC90: > 13.4 µM

## C[C@H](NC(=O)c1sc2ccccc2c1Cl)c1nnc2ccccn12
  IC50: > 9.25 µM
  IC90: > 9.25 µM

## Cc1ccc(C(CCNCc2cccs2)c2ccco2)cc1 (configuration not stated)
  IC50: 1.96 µM
  IC90: 2.72 µM

## O=C1C(=O)N(Cc2ccccc2Cl)c2ccc(F)cc21
  IC50: > 11.4 µM
  IC90: > 11.4 µM
